Results published in patent US20180201592A1, “2-AMINO-1,3,4-THIADIAZINE AND 2-AMINO-1,3,4-OXADIAZINE BASED ANTIFUNGAL AGENTS” (F2G Limited, priority 2015, published 2018).

Tests used:
Settings in all cases: banded MIC grade
[1] = tested on: A. terreus 49; experiment: Minimum inhibitory concentration, YAG medium; type: cell-based, Aspergillus terreus
In short: (§1)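 Growth inhibition was read as absorbance at 485 nm after spores of Aspergillus spp. were exposed for 24 hrs at 35° C to doubling dilutions of the compound. Dilutions were made in water starting from a 5 mg/mL DMSO stock, and MIC values were expressed in mg/L.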

[2] = tested on: A. fumigatus 210; experiment: Minimum inhibitory concentration, YAG medium; type: cell-based, Aspergillus fumigatus
In short: (§2)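 Broth microdilution in YAG medium; inoculum 1-2×10^4 cfu/mL; compound 50-0.05 mg/L in doubling steps, from DMSO stock. 24 h, 35° C. Read OD 485 nm; MIC = lowest conc. inhibiting growth >70% vs no-drug control, in mg/L.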

[3] = tested on: C. parapsilosis; experiment: Minimum inhibitory concentration, RPMI medium; type: cell-based
In short: (§3)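 Growth inhibition was judged from optical density at 485 nm per well after 24-48 hrs at 35° C. Test compound came from a 5 mg/mL DMSO stock, serially doubled in water before testing in RPMI 1640.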

[4] = tested on: C. tropicalis; experiment: Minimum inhibitory concentration, RPMI medium; type: cell-based
In short: as §3

[5] = tested on: C. glabrata; experiment: Minimum inhibitory concentration, RPMI medium; type: cell-based
In short: as §3

[6] = tested on: A. niger; experiment: Minimum inhibitory concentration, RPMI medium; type: cell-based
In short: as §3

[7] = tested on: A. terreus; experiment: Minimum inhibitory concentration, RPMI medium; type: cell-based
In short: as §3

[8] = tested on: C. krusei; experiment: Minimum inhibitory concentration, RPMI medium; type: cell-based
In short: as §3

[9] = tested on: A. terreus 49; experiment: Minimum inhibitory concentration, RPMI medium; type: cell-based
In short: as §3

[10] = tested on: A. flavus; experiment: Minimum inhibitory concentration, RPMI medium; type: cell-based
In short: as §3

[11] = tested on: C. albicans; experiment: Minimum inhibitory concentration, RPMI medium; type: cell-based
In short: as §3

[12] = tested on: Aspergillus flavus; experiment: Minimum inhibitory concentration, YAG medium; type: cell-based
In short: as §1

[13] = tested on: Aspergillus terreus; experiment: Minimum inhibitory concentration, YAG medium; type: cell-based
In short: as §1

[14] = tested on: Aspergillus niger; experiment: Minimum inhibitory concentration, YAG medium; type: cell-based
In short: as §1

[15] = tested on: Aspergillus fumigatus; experiment: Minimum inhibitory concentration, YAG medium; type: cell-based
In short: as §2

[16] = tested on: A. fumigatus; experiment: Minimum inhibitory concentration, RPMI medium; type: cell-based
In short: (§4)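 Broth microdilution in RPMI 1640 (2% glucose, 0.135 M MOPS, pH 7.0) at 1-2×10^4 cfu/mL, testing 50-0.05 mg/L in doubling steps. After 24-48 hrs at 35° C, OD at 485 nm was read, and the MIC was taken as the lowest drug level suppressing growth by >80% relative to drug-free wells.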

[17] = tested on: A. fumigatus 210; experiment: Minimum inhibitory concentration, RPMI medium; type: cell-based
In short: as §4

NC1=NN=C(CCCCOCc2cccc(Oc3ccccc3)c2)CS1
1 (1: ≥20 mg/L): MIC grade, C. GLABRATA, RPMI media [5] | MIC grade, A. NIGER, RPMI media [6] | MIC grade, A. TERREUS, RPMI media [7] | MIC grade, A. TERREUS 49, RPMI media [9] | MIC grade, A. FLAVUS, RPMI media [10] | MIC grade, A. FUMIGATUS, RPMI media [16] | MIC grade, A. FUMIGATUS 210, RPMI media [17]
3 (3: 1-5 mg/L): MIC grade, C. PARAPSILOSIS, RPMI media [3] | MIC grade, C. TROPICALIS, RPMI media [4] | MIC grade, C. KRUSEI, RPMI media [8] | MIC grade, C. ALBICANS, RPMI media [11]
2 (2: 1-5 mg/L): MIC grade, A. FLAVUS, YAG media [12] | MIC grade, A. NIGER, YAG media [14]
1 (1: ≥5 mg/L): MIC grade, A. TERREUS 49, YAG media [1] | MIC grade, A. FUMIGATUS 210, YAG media [2] | MIC grade, A. TERREUS, YAG media [13] | MIC grade, A. FUMIGATUS, YAG media [15]

NC1=NN=C(CCCCOCc2cccc(-c3ccccc3)c2)CS1
1 (1: ≥20 mg/L): MIC grade, C. GLABRATA, RPMI media [5] | MIC grade, A. NIGER, RPMI media [6] | MIC grade, A. TERREUS 49, RPMI media [9] | MIC grade, A. FUMIGATUS, RPMI media [16] | MIC grade, A. FUMIGATUS 210, RPMI media [17]
1 (1: ≥5 mg/L): MIC grade, A. FUMIGATUS 210, YAG media [2] | MIC grade, A. FUMIGATUS, YAG media [15]
2 (2: 5-20 mg/L): MIC grade, C. PARAPSILOSIS, RPMI media [3] | MIC grade, C. TROPICALIS, RPMI media [4] | MIC grade, A. TERREUS, RPMI media [7] | MIC grade, C. KRUSEI, RPMI media [8] | MIC grade, A. FLAVUS, RPMI media [10] | MIC grade, C. ALBICANS, RPMI media [11]
2 (2: 1-5 mg/L): MIC grade, A. TERREUS 49, YAG media [1] | MIC grade, A. FLAVUS, YAG media [12] | MIC grade, A. TERREUS, YAG media [13] | MIC grade, A. NIGER, YAG media [14]

NC1=NN=C(CCCCOCc2cc(F)cc(F)c2)CS1
2 (2: 5-20 mg/L): MIC grade, A. FUMIGATUS 210, RPMI media [17]
3 (3: 1-5 mg/L): MIC grade, C. GLABRATA, RPMI media [5] | MIC grade, A. NIGER, RPMI media [6] | MIC grade, A. TERREUS, RPMI media [7] | MIC grade, A. TERREUS 49, RPMI media [9] | MIC grade, A. FLAVUS, RPMI media [10]
4 (4: <1 mg/L): MIC grade, C. PARAPSILOSIS, RPMI media [3] | MIC grade, C. TROPICALIS, RPMI media [4] | MIC grade, C. KRUSEI, RPMI media [8] | MIC grade, C. ALBICANS, RPMI media [11] | MIC grade, A. FUMIGATUS, RPMI media [16]
4 (4: <0.2 mg/L): MIC grade, A. TERREUS 49, YAG media [1] | MIC grade, A. FUMIGATUS 210, YAG media [2] | MIC grade, A. FLAVUS, YAG media [12] | MIC grade, A. TERREUS, YAG media [13] | MIC grade, A. NIGER, YAG media [14] | MIC grade, A. FUMIGATUS, YAG media [15]

NC1=NN=C(CCCCOCc2ccc(Cl)c(F)c2)CS1
2 (2: 5-20 mg/L): MIC grade, A. FUMIGATUS 210, RPMI media [17]
4 (4: <1 mg/L): MIC grade, C. PARAPSILOSIS, RPMI media [3] | MIC grade, C. TROPICALIS, RPMI media [4] | MIC grade, C. GLABRATA, RPMI media [5] | MIC grade, A. NIGER, RPMI media [6] | MIC grade, C. KRUSEI, RPMI media [8] | MIC grade, A. FLAVUS, RPMI media [10] | MIC grade, C. ALBICANS, RPMI media [11] | MIC grade, A. FUMIGATUS, RPMI media [16]
3 (3: 1-5 mg/L): MIC grade, A. TERREUS, RPMI media [7] | MIC grade, A. TERREUS 49, RPMI media [9]
4 (4: <0.2 mg/L): MIC grade, A. TERREUS 49, YAG media [1] | MIC grade, A. FUMIGATUS 210, YAG media [2] | MIC grade, A. FLAVUS, YAG media [12] | MIC grade, A. TERREUS, YAG media [13] | MIC grade, A. NIGER, YAG media [14] | MIC grade, A. FUMIGATUS, YAG media [15]
